Measured values reported in patent publication US12637465B2, “Pharmaceutically acceptable salts of sepiapterin” (PTC Therapeutics MP, Inc., priority 2018, dated 2026).

Test: Solid form stability study of salts and/or co-crystals at 25° C./60% RH and 40° C./75% RH
Type: physicochemical
Experimental: The stability of the prepared salts and/or co-crystals was analyzed after 1 and 2 weeks at 25° C. and 60% relative humidity and 40° C. and 75% relative humidity. […] None of the phosphate, tartrate, or nicotinate salts and/or co-crystals underwent a form change during the stability testing, and each of them retained greater than 97% purity over the two weeks of the study. In fact, both the tartrate and nicotinate both retained greater than 99% purity.

C[C@H](O)C(=O)C1=Nc2c(nc(N)[nH]c2=O)NC1 [HCI, sepiapterin]
Form change (1 week, 25° C./60% RH): No
Purity (Area %) (1 week, 25° C./60% RH): 97.19 Area %
Purity vs. initial (%) (1 week, 25° C./60% RH): 103.5%
Form change (1 week, 40° C./75% RH): No
Purity (Area %) (1 week, 40° C./75% RH): 89.25 Area %
Purity vs. initial (%) (1 week, 40° C./75% RH): 95.0%
Form change (2 weeks, 25° C./60% RH): No
Purity (Area %) (2 weeks, 25° C./60% RH): 91.84 Area %
Purity vs. initial (%) (2 weeks, 25° C./60% RH): 97.8%
Form change (2 weeks, 40° C./75% RH): No
Purity (Area %) (2 weeks, 40° C./75% RH): 84.16 Area %
Purity vs. initial (%) (2 weeks, 40° C./75% RH): 89.6%
Purity (Area %) (Initial): 93.94 Area %

C[C@H](O)C(=O)C1=Nc2c(nc(N)[nH]c2=O)NC1 [Malonate, sepiapterin]
Purity (Area %) (1 week, 25° C./60% RH): 99.39 Area %
Purity vs. initial (%) (1 week, 25° C./60% RH): 99.9%
Purity (Area %) (1 week, 40° C./75% RH): 99.14 Area %
Purity vs. initial (%) (1 week, 40° C./75% RH): 99.7%
Purity (Area %) (2 weeks, 25° C./60% RH): 99.23 Area %
Purity vs. initial (%) (2 weeks, 25° C./60% RH): 99.8%
Purity (Area %) (2 weeks, 40° C./75% RH): 97.81 Area %
Purity vs. initial (%) (2 weeks, 40° C./75% RH): 98.3%
Purity (Area %) (Initial): 99.45 Area %

C[C@H](O)C(=O)C1=Nc2c(nc(N)[nH]c2=O)NC1 [Methanesulfonate, sepiapterin]
Form change (1 week, 25° C./60% RH): No
Purity (Area %) (1 week, 25° C./60% RH): 95.26 Area %
Purity vs. initial (%) (1 week, 25° C./60% RH): 104.5%
Form change (1 week, 40° C./75% RH): No
Purity (Area %) (1 week, 40° C./75% RH): 88.68 Area %
Purity vs. initial (%) (1 week, 40° C./75% RH): 97.3%
Form change (2 weeks, 25° C./60% RH): No
Purity (Area %) (2 weeks, 25° C./60% RH): 91.95 Area %
Purity vs. initial (%) (2 weeks, 25° C./60% RH): 100.9%
Form change (2 weeks, 40° C./75% RH): No
Purity (Area %) (2 weeks, 40° C./75% RH): 85.97 Area %
Purity vs. initial (%) (2 weeks, 40° C./75% RH): 94.3%
Purity (Area %) (Initial): 91.14 Area %

C[C@H](O)C(=O)C1=Nc2c(nc(N)[nH]c2=O)NC1 [Sulfate, sepiapterin]
Form change (1 week, 25° C./60% RH): No
Purity (Area %) (1 week, 25° C./60% RH): 95.22 Area %
Purity vs. initial (%) (1 week, 25° C./60% RH): 97.8%
Form change (1 week, 40° C./75% RH): No
Purity (Area %) (1 week, 40° C./75% RH): 89.44 Area %
Purity vs. initial (%) (1 week, 40° C./75% RH): 91.9%
Form change (2 weeks, 25° C./60% RH): No
Purity (Area %) (2 weeks, 25° C./60% RH): 93.46 Area %
Purity vs. initial (%) (2 weeks, 25° C./60% RH): 96.0%
Form change (2 weeks, 40° C./75% RH): No
Purity (Area %) (2 weeks, 40° C./75% RH): 88.20 Area %
Purity vs. initial (%) (2 weeks, 40° C./75% RH): 90.6%
Purity (Area %) (Initial): 97.33 Area %

C[C@H](O)C(=O)C1=Nc2c(nc(N)[nH]c2=O)NC1 [Toluenesulfonate, sepiapterin]
Form change (1 week, 25° C./60% RH): No
Purity (Area %) (1 week, 25° C./60% RH): 94.19 Area %
Purity vs. initial (%) (1 week, 25° C./60% RH): 97.3%
Form change (1 week, 40° C./75% RH): No
Purity (Area %) (1 week, 40° C./75% RH): 89.11 Area %
Purity vs. initial (%) (1 week, 40° C./75% RH): 92.0%
Form change (2 weeks, 25° C./60% RH): No
Purity (Area %) (2 weeks, 25° C./60% RH): 91.40 Area %
Purity vs. initial (%) (2 weeks, 25° C./60% RH): 94.4%
Form change (2 weeks, 40° C./75% RH): No
Purity (Area %) (2 weeks, 40° C./75% RH): 88.12 Area %
Purity vs. initial (%) (2 weeks, 40° C./75% RH): 91.0%
Purity (Area %) (Initial): 96.84 Area %
